Assay [1] deals with PI3 K Alpha (Homo sapiens, UniProt P42336). Briefly: PI3 kinase phosphorylation assays (homogenous solution phase, one step solid phase, ATP depletion/KinaseGlo). Type of assay: biochemical. On the technique in general: Kinase-Glo reads ATP consumption through a luciferase reaction.
Assay [2] relates to A2780 cells. Briefly: Viability assay in A2780 (Cell Titer Glo). The settings on record: Homo sapiens, A2780 cells, read-out: A2780 Cell prolif. EC50. Type of assay: cell-based, human. The procedure: Cell viability was assessed with Cell Titer Glo assay, Promega. Cells were seeded in TC treated 96-well plates at a density of 1,000 (A2780 cells) per well in DMEM with 10% FBS, 1% Sodium Pyruvate, and 1% Penicillin Streptomycin for a minimum of 2 hrs prior to addition of compound. Test compounds were serially diluted (3 fold) in DMSO to 500× the final concentration. For each concentration of test compound, 2 μL (500×) aliquots of compound or 100% DMSO (control) were diluted in 500 μL of culture medium to 2× final concentration then diluted 1× on the cells. Cells were incubated for 72 hrs at 37° C., 5% CO2. After which Cell Titer Glo is added to determine viable cells, the assay was performed according to the manufacturer's instruction (Promega Corporation, Madison, Wis. USA). Each experimental condition was performed in duplicate. Raw data was imported in Abase and EC50s calculated with XL-fit data analysis software and are shown in Tables 1 and 2 in the column labeled “A2780 Cell prolif. EC50”.
In general terms: In ATP-based viability assays light output follows the ATP content of the culture.

Read-outs that look alike come from different tables or passages of the source. A value given as a limit tells only on which side of the number the result lay.

Sequence of PI3 K Alpha (P42336 whole entry): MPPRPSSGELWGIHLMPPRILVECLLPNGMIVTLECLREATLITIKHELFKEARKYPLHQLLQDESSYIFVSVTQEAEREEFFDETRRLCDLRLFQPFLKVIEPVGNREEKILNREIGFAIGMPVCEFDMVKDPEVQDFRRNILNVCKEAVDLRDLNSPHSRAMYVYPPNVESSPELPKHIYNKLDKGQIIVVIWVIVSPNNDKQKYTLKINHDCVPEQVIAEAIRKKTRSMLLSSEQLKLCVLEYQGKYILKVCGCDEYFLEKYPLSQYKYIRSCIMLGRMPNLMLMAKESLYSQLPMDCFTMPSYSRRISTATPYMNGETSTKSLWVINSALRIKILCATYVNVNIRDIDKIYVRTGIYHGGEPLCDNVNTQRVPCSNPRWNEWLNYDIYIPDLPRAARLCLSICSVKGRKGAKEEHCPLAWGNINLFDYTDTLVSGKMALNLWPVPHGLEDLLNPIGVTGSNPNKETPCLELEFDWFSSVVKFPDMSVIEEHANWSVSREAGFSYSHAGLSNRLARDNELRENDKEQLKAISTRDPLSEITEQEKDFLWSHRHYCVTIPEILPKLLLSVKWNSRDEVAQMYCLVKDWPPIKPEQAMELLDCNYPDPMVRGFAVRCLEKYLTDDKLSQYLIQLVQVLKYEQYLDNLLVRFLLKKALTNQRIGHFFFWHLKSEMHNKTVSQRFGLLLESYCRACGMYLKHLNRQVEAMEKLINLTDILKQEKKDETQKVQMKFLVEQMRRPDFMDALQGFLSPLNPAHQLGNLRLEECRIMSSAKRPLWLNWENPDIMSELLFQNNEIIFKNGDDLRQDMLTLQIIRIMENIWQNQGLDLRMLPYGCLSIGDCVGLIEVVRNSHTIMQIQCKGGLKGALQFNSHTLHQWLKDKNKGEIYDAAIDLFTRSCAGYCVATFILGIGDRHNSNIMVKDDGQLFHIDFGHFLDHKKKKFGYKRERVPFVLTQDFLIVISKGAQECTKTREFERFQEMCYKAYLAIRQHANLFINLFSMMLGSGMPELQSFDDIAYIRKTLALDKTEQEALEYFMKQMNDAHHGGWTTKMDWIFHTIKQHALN
Sequence of PI3 K Alpha (P27986 whole entry partner): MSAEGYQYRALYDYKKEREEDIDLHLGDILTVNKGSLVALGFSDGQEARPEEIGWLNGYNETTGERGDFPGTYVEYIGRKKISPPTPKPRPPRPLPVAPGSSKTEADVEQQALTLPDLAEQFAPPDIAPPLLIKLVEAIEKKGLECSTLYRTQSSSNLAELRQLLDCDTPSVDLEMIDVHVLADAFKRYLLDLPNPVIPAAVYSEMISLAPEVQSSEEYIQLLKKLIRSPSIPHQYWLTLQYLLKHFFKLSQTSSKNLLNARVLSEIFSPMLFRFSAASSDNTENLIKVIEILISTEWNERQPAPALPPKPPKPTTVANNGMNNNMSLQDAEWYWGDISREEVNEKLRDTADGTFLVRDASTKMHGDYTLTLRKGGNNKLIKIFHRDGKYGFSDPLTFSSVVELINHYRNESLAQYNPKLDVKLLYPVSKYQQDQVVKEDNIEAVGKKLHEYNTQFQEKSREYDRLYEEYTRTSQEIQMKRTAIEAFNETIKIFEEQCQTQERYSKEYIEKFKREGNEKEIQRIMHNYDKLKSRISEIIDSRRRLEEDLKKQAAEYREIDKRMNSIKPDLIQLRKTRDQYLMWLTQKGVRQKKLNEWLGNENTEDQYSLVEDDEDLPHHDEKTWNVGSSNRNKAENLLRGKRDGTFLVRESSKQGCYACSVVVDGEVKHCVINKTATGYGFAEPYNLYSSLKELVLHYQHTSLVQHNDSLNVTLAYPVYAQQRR

Regarding `CC(=O)Nc1nc2cc(F)c(-c3cnc(N)c(C(F)(F)F)c3)cc2s1` [Example 2-29, N-[6-(6-Amino-5-trifluoromethyl-pyridin-3-yl)-5-fluoro-benzothiazol-2-yl]-acetamide], the IC50 in assay [1] (ATP depletion assay, read-out: PI3 K Alpha IC50) is less than 1 µM. Moreover, in assay [2] (72 hrs), the EC50 was less than 25 µM.

As to `CC(=O)Nc1cn2cc(-c3cnc(N)cn3)ccc2n1` [Example 161, N-(6-(5-aminopyrazin-2-yl)imidazo[1,2-a]pyridin-2-yl)acetamide], the IC50 in assay [1] (read-out: PI3K Alpha IC50) is less than 1 µM. In addition, the EC50 in assay [2] was less than 25 µM.

Consider `COc1ccccc1-c1cc(-c2ccc3nc(NC(C)=O)cn3n2)cnc1N` [Example 212, N-(6-(6-amino-5-(2-methoxyphenyl)pyridin-3-yl)imidazo[1,2-b]pyridazin-2-yl)acetamide], for which the IC50 in assay [1] (read-out: PI3K Alpha IC50) is less than 1 µM. Also, the half-maximal effective concentration (EC50) in assay [2] was less than 10 µM.

`CN(CC(=O)Nc1cn2cc(-c3cnc(N)c(C(F)(F)F)c3)ccc2n1)C(=O)OC(C)(C)C` [Example 244, tert-butyl 2-(6-(6-amino-5-(trifluoromethyl)pyridin-3-yl)imidazo[1,2-a]pyridin-2-ylamino)-2-oxoethyl(methyl) carbamate]: the IC50 in assay [1] (read-out: PI3K Alpha IC50) is less than 1 µM. For the same molecule, the EC50 in assay [2] was less than 10 µM.

For the molecule `CC(C)(C)OC(=O)NCC(=O)Nc1cn2cc(-c3cnc(N)c(C(F)(F)F)c3)ccc2n1` [Example 203, tert-butyl 2-(6-(6-amino-5-(trifluoromethyl)pyridin-3-yl)imidazo[1,2-a]pyridin-2-ylamino)-2-oxoethylcarbamate], the IC50 in assay [1] (read-out: PI3K Alpha IC50) is less than 1 µM. The EC50 in assay [2] was less than 10 µM.

Take `CC(=O)Nc1cn2cc(-c3cnc(N)c(OC4CCN(C)CC4)n3)ccc2n1` [Example 40, N-(6-(5-amino-6-(1-methylpiperidin-4-yloxy)pyrazin-2-yl)imidazo[1,2-a]pyridin-2-yl)acetamide]: in assay [1] (read-out: PI3K Alpha IC50), the IC50 is less than 10 µM. The EC50 in assay [2] is less than 25 µM.

For `CCN(CC)Cc1cc(-c2ccc3nc(NC(C)=O)cn3c2)cnc1N` [Example 181, N-(6-(6-amino-5-((diethylamino)methyl)pyridin-3-yl)imidazo[1,2-a]pyridin-2-yl)acetamide], the IC50 in assay [1] (read-out: PI3K Alpha IC50) was less than 1 µM. The concentration giving a half-maximal response (EC50) in assay [2] was less than 25 µM.

`C[C@@H](NC(=O)OC(C)(C)C)C(=O)Nc1cn2nc(-c3cnc(N)c(C(F)(F)F)c3)ccc2n1` [Example 253, (R)-tert-butyl 1-(6-(6-amino-5-(trifluoromethyl)pyridin-3-yl)imidazo[1,2-b]pyridazin-2-ylamino)-1-oxopropan-2-ylcarbamate]: the IC50 in assay [1] (read-out: PI3K Alpha IC50) is less than 1 µM. In assay [2], the concentration for a half-maximal effect (EC50) is less than 10 µM.

For the molecule `CCC(=O)Nc1cn2cc(-c3cnc(N)c(C(F)(F)F)c3)ccc2n1` [Example 236, N-(6-(6-amino-5-(trifluoromethyl)pyridin-3-yl)imidazo[1,2-a]pyridin-2-yl)propionamide], in assay [1] (read-out: PI3K Alpha IC50), the IC50 is less than 1 µM. For the same molecule, the EC50 in assay [2] is less than 10 µM.

For `CC(=O)Nc1cn2cc(-c3cnc(N)c(-c4ccc(F)cc4)c3)ccc2n1` [Example 183, N-(6-(6-amino-5-(4-fluorophenyl)pyridin-3-yl)imidazo[1,2-a]pyridin-2-yl)acetamide], the 50% inhibitory concentration (IC50) in assay [1] (read-out: PI3K Alpha IC50) was less than 1 µM. Moreover, in assay [2], the EC50 was less than 25 µM.

`NC(=O)N1CCC[C@H]1C(=O)Nc1cn2cc(-c3cnc(N)c(C(F)(F)F)c3)ccc2n1` [Example 46, (S)-N2-(6-(6-amino-5-(trifluoromethyl)pyridin-3-yl)imidazo[1,2-a]pyridin-2-yl)pyrrolidine-1,2-dicarboxamide]: the IC50 in assay [1] (read-out: PI3K Alpha IC50) was less than 10 µM. The EC50 in assay [2] was less than 10 µM.

For `COc1nc(-c2cc(F)c3nc(NC(C)=O)cn3c2)cnc1N` [Example 145, N-(6-(5-amino-6-methoxypyrazin-2-yl)-8-fluoroimidazo [1,2-a]pyridin-2-yl)acetamide], the IC50 in assay [1] (read-out: PI3K Alpha IC50) was less than 1 µM. Moreover, in assay [2], the EC50 was less than 25 µM.

`CC(=O)Nc1cn2cc(-c3cnc(N)c(CN4CCCC4)c3)ccc2n1` [Example 173, N-(6-(6-amino-5-(pyrrolidin-1-ylmethyl)pyridin-3-yl)imidazo[1,2-a]pyridin-2-yl)acetamide]: the IC50 in assay [1] (read-out: PI3K Alpha IC50) was less than 1 µM. Besides, the EC50 in assay [2] was less than 25 µM.

Take `CC(C)(C(=O)Nc1cn2cc(-c3cnc(N)c(C(F)(F)F)c3)ccc2n1)c1ccccc1` [Example 44]: the 50% inhibitory concentration (IC50) in assay [1] (read-out: PI3K Alpha IC50) is less than 10 µM. The EC50 in assay [2] was less than 25 µM.

With `Nc1ncc(-c2ccc3nc(NC(=O)N4CCC(C(=O)O)C4)cn3c2)cc1C(F)(F)F` (centres unmarked) [Example 151], the half-maximal inhibitory concentration (IC50) in assay [1] (read-out: PI3K Alpha IC50) was less than 1 µM. The EC50 in assay [2] was less than 25 µM.

Take `Nc1ncc(-c2ccc3nc(NC(=O)Cc4ccccn4)cn3c2)cc1C(F)(F)F` [Example 52, N-(6-(6-amino-5-(trifluoromethyl)pyridin-3-yl)imidazo[1,2-a]pyridin-2-yl)-2-(pyridin-2-yl)acetamide]: the IC50 in assay [1] (read-out: PI3K Alpha IC50) was less than 1 µM. In assay [2], the 50% effective concentration (EC50) was less than 10 µM.

Regarding `NCCC(=O)Nc1cn2nc(-c3cnc(N)c(C(F)(F)F)c3)ccc2n1` [Example 246, 3-amino-N-(6-(6-amino-5-(trifluoromethyl)pyridin-3-yl)imidazo[1,2-b]pyridazin-2-yl)propanamide], the concentration for half-maximal inhibition (IC50) in assay [1] (read-out: PI3K Alpha IC50) was less than 1 µM. Moreover, the EC50 in assay [2] is less than 10 µM.

For the molecule `CC(=O)Nc1cn2nc(-c3cnc(N)cc3C(F)(F)F)ccc2n1` [Example 24, N-[6-(6-Amino-4-trifluoromethyl-pyridin-3-yl)-imidazo[1,2-b]pyridazin-2-yl]-acetamide], the IC50 in assay [1] (read-out: PI3K Alpha IC50) is less than 1 µM. Further, the EC50 in assay [2] was less than 25 µM.

Regarding `CC(=O)Nc1cn2cc(-c3cnc(N)c(C)n3)ccc2n1` [Example 226, N-(6-(5-amino-6-methylpyrazin-2-yl)imidazo[1,2-a]pyridin-2-yl)acetamide], in assay [1] (read-out: PI3K Alpha IC50), the IC50 was less than 1 µM. Besides, the half-maximal effective concentration (EC50) in assay [2] was less than 10 µM.

Turning to `CC(=O)Nc1cn2nc(-c3cnc(N)c(C(=O)NCCO)c3)ccc2n1` [Example 140, 5-(2-acetamido-imidazo[1,2-b]pyridazin-6-yl)-2-amino-N-(2-hydroxyethyl) nicotinamide], the IC50 in assay [1] (read-out: PI3K Alpha IC50) is less than 1 µM. Further, the EC50 in assay [2] is less than 25 µM.

Take `COc1cc(-c2ccc3nc(NC(C)=O)cn3n2)c(C)nc1N` [Example 43, N-(6-(6-amino-5-methoxy-2-methylpyridin-3-yl)imidazo[1,2-b]pyridazin-2-yl)acetamide]: the IC50 in assay [1] (read-out: PI3K Alpha IC50) is less than 10 µM. Also, the EC50 in assay [2] is less than 25 µM.

Regarding `Nc1ncc(-c2ccc3nc(NC(=O)N4CCCC4C(F)(F)F)cn3c2)cc1C(F)(F)F` (centres unmarked) [Example 191], in assay [1] (read-out: PI3K Alpha IC50), the IC50 was less than 1 µM. Also, the EC50 in assay [2] was less than 10 µM.

In the case of `CC(C)(C)OC(=O)N1CCC(OCC(=O)Nc2cn3cc(-c4cnc(N)c(C(F)(F)F)c4)ccc3n2)CC1` [Example 251, tert-butyl 4-(2-(6-(6-amino-5-(trifluoromethyl)pyridin-3-yl)imidazo[1,2-a]pyridin-2-ylamino)-2-oxoethoxy) piperidine-1-carboxylate], the IC50 in assay [1] (read-out: PI3K Alpha IC50) was less than 1 µM. In addition, the EC50 in assay [2] is less than 10 µM.

On to `Nc1ncc(-c2ccc3nc(NC(=O)CCCC(=O)O)cn3n2)cc1C(F)(F)F` [Example 138, 5-(6-(6-amino-5-(trifluoromethyl)pyridin-3-yl)imidazo[1,2-b]pyridazin-2-ylamino)-5-oxopentanoic acid], for which the IC50 in assay [1] (read-out: PI3K Alpha IC50) is less than 1 µM. In addition, the EC50 in assay [2] is less than 25 µM.

For the molecule `N#Cc1ccc(C(=O)Nc2cn3cc(-c4cnc(N)c(C(F)(F)F)c4)ccc3n2)cc1` [Example 159, N-(6-(6-amino-5-(trifluoromethyl)pyridin-3-yl)imidazo[1,2-a]pyridin-2-yl)-4-cyanobenzamide], the IC50 in assay [1] (read-out: PI3K Alpha IC50) was less than 1 µM. Further, in assay [2], the half-maximal effective concentration (EC50) is less than 25 µM.

For the molecule `Nc1ncc(-c2ccc3nc(NC(=O)c4ccncc4)cn3c2)cc1C(F)(F)F` [Example 163], the IC50 in assay [1] (read-out: PI3K Alpha IC50) is less than 1 µM. Besides, in assay [2], the EC50 is less than 25 µM.

With `CC(C)(C)OC(=O)N1CCCCC1CCC(=O)Nc1cn2nc(-c3cnc(N)c(C(F)(F)F)c3)ccc2n1` (centres unmarked) [Example 250, tert-butyl 2-(3-(6-(6-amino-5-(trifluoromethyl)pyridin-3-yl)imidazo[1,2-b]pyridazin-2-ylamino)-3-oxopropyl) piperidine-1-carboxylate], in assay [1] (read-out: PI3K Alpha IC50), the half-maximal inhibitory concentration (IC50) was less than 1 µM. In addition, the EC50 in assay [2] was less than 10 µM.

On to `CC(C)(C)OC(=O)NCCC(=O)Nc1cn2nc(-c3cnc(N)c(C(F)(F)F)c3)ccc2n1` [Example 231, tert-butyl 3-(6-(6-amino-5-(trifluoromethyl)pyridin-3-yl)imidazo[1,2-b]pyridazin-2-ylamino)-3-oxopropyl-carbamate], for which the IC50 in assay [1] (read-out: PI3K Alpha IC50) is less than 1 µM. For the same molecule, the EC50 in assay [2] is less than 10 µM.

On to `CC(=O)N1CCC[C@H]1C(=O)Nc1cn2cc(-c3cnc(N)c(C(F)(F)F)c3)ccc2n1` [Example 172, (S)-1-acetyl-N-(6-(6-amino-5-(trifluoromethyl)pyridin-3-yl)imidazo[1,2-a]pyridin-2-yl)pyrrolidine-2-carboxamide], for which the IC50 in assay [1] (read-out: PI3K Alpha IC50) was less than 1 µM. The EC50 in assay [2] was less than 25 µM.

For `Nc1ncc(-c2ccc3nc(NC(=O)c4ccc(F)nc4)cn3c2)cc1C(F)(F)F` [Example 143, N-(6-(6-amino-5-(trifluoromethyl)pyridin-3-yl)imidazo[1,2-a]pyridin-2-yl)-6-fluoronicotinamide], the IC50 in assay [1] (read-out: PI3K Alpha IC50) is less than 1 µM. Besides, in assay [2], the EC50 was less than 25 µM.

In the case of `CO/N=C/c1cc(-c2ccc3nc(NC(C)=O)cn3c2)cnc1N` [Example 150, (E)-N-(6-(6-amino-5-((methoxy-imino)methyl)pyridin-3-yl)imidazo[1,2-a]pyridin-2-yl)acetamide], in assay [1] (read-out: PI3K Alpha IC50), the IC50 was less than 1 µM. Further, the EC50 in assay [2] was less than 25 µM.

By IC50 is commonly meant the concentration that inhibits the measured activity by half. A word on the EC50: it is the concentration at which the effect is half-maximal.

Values taken from patent US20100075965A1, “PI3 KINASE INHIBITORS AND METHODS OF THEIR USE” (Novartis AG, priority 2006, published 2010).
